Literature values in patent US20050096369A1, “Compositions and methods for treating cellular proliferation disorders” (priority 2003, published 2005).
Each block holds one compound with its values, some of them ahead of it.

Tests used:
[1] = tested on: voltage gated calcium channels; conditions: cultured rat hippocampal neurons; concentration and voltage dependant (Weng et al., 2003)
[2] = tested on: cell lines derived from human malignancies; conditions: Pizer et al.
leukemia cells = conditions: Zhu Ningxi, et al.
[3] = Merck Index
calcium-channel = conditions: PDR and Zhou, 2003
[4] = not given; remark: listed apart in the source
[5] = tested on: voltage-gated sodium channel; conditions: PDR and Zhou, 2003

Structure (SMILES): N=C(N)NCCCCN [Agmatine, agmatine]
- effect on voltage gated calcium channels [1]: block voltage gated calcium channels

Structure (SMILES): C/C=C/C/C=C/CCC(=O)[C@H]1O[C@H]1C(N)=O [cerulenin]
- cytotoxicity [2]: selectively cytotoxic to cell lines derived from human malignancies

Structure (SMILES): O=C1CCC[C@@H]2[C@H]3CCCN4CCC[C@@H](CN12)[C@@H]34 [matrine]
- effect on leukemia cell differentiation (leukemia cells): could help leukemia cells differentiate into mature and normal white blood cells
- time to excretion by the kidneys (in vivo): ≤ 24 h
- stability in the blood (not converted by the liver): stable in the blood
- water solubility [3]: water soluble

- fate when administered by injection (injection): stable and is excreted as oxymatrine
- fate when taken orally (oral): converted to matrine
Structure (SMILES): O=C1CCC[C@@H]2[C@H]3CCC[N+]4([O-])CCC[C@@H](CN12)[C@@H]34 (stereo partly drawn) [oxymatrine]

- time to peak plasma levels ([4]; after ingestion): one to one and a half
- time in which most of a dose is excreted ([4]; excreted in urine as apovincaminic acid): ≤ 24 h
- elimination half-life ([4]; following ingestion): one to two
- absorption ([4]; given with food): up to 60 % of an ingested dose
- absorption of an ingested dose ([4]; on an empty stomach): ≥ 7%
Structure (SMILES): CCOC(=O)C1=C[C@]2(CC)CCCN3CCc4c(n1c1ccccc41)[C@@H]32 [vinpocetine, eburnamenine-14-carboxylic acid ethyl ester]
- calcium-channel blocking (calcium-channel): calcium-channel blocking activity
- voltage-gated sodium channel blocking [5]: voltage-gated sodium channel blocking activity
